# Earlier results in patent US20250369953A1, “METHODS FOR MEASURING CIRCADIAN RHYTHM FACTORS” (priority 2024, published 2025).
smiles,measurement,setting,value
"COc1ccc2[nH]cc(CCNC(C)=O)c2c1 [Melatonin, N-acetyl-5-methoxytryptamine]",peak plasma concentrations,"endogenous, nighttime sleep, occurring at approximately 02:00 am",approximately 70 μg/ml
same,metabolic clearance,healthy young adult humans,approximately 1 liter per minute
same,volume of distribution,healthy young adult humans,approximately 40 liters
